What all share (format): functional
The nature of assay [1]: Antiplatelet activity in Sprague-Dawley rat platelet-rich plasma assessed as minimum drug level causing inhibition of collagen-induced platelet aggregation administered 2 mins before collagen challenge by modified smear method.
A short description of assay [2]: Antiplatelet activity in Sprague-Dawley rat platelet-rich plasma assessed as minimum drug level causing inhibition of ADP-induced platelet aggregation administered 2 mins before ADP challenge by modified smear method.
Assay [3] in a line: Antiplatelet activity in Sprague-Dawley rat platelet-rich plasma assessed as minimum drug level causing inhibition of arachidonic acid-induced platelet aggregation administered 2 mins before arachidonic acid challenge by modified smear method.

In the case of `CC(=O)Oc1ccccc1C(=O)O` [ASPIRIN], the Activity is 250 µg/mL in assay [1], 1000 µg/mL in assay [2] and 50 µg/mL in assay [3].

Take `COc1ccc(Cc2nccc3cc(OC)c(OC)cc23)cc1OC` [PAPAVERINE]: the Activity in assay [1] is 25 µg/mL; in assay [2] it was 100 µg/mL; in assay [3], 10 µg/mL.
